Experiments:
Type in all cases: cell-based
MNT-1 melanoma cells = experiment: Melanin production inhibitory ability; conditions: 200 μg/mL, 72 hours
Protocol: The melanin production inhibitory ability (brightening) of the Lactobacillus pentosus […]-1 strain of the present invention was investigated. Specifically, MNT-1 melanoma cells were prepared by adding 10% FBS to DMEM (Dulbecco's Modified Eagle's Medium) as a basal medium. Then, the MNT-1 melanoma cells were seeded in a 6-well plate at a concentration of 1 to 2×10^5 cells/mL and cultured for 24 hours. Subsequently, the strain of the present invention was treated, and the cells were cultured for 72 hours and then recovered. Then, after centrifugation at 13,000 rpm for 1 minute and removal of the supernatant, 300 μL of a 0.5% Triton X-100 solution was added to the pellet to lyse the cells. Thereafter, centrifugation was performed at 13,000 rpm for 3 minutes, and the pellet and supernatant were recovered. Then, 100 μL of 0.5N NaOH was added to the pellet, and the cells were incubated overnight to dissolve melanin, and then the absorbance at 450 nm was measured using an ELISA reader.

[1] = system: raw 264.7 mouse macrophages; experiment: Nitric oxide production inhibitory ability, GRIESS method, LPS stimulated; conditions: 100 uM, 500 ng/mL LPS
Protocol: The NO production inhibitory ability of the Lactobacillus pentosus NIFSLG-1 strain of the present invention was investigated. Specifically, the nitric oxide (NO) production ability in raw 264.7 mouse macrophages was evaluated for anti-inflammatory efficacy using the GRIESS method. First, the Raw 264.7 cells (2×10^5 cells/well) were dispensed into a 24-well culture plate, cultured in a DMEM medium containing 10% FBS (fetal bovine serum) for 24 hours, and then cultured in a medium without FBS for 12 hours. Subsequently, […] and pretreated for 30 minutes, and added to the cells with LPS (lipopolysaccharide) to a final concentration of 500 ng/ml, and then cultured for 18 hours.
Thereafter, the supernatant was recovered, and the GRIESS reagent was added, followed by reacting at room temperature for 15 minutes, and the absorbance was measured at 540 nm to evaluate the relative NO production and production inhibitory ability.

skin fibroblasts = experiment: Collagen synthesis effect, ELISA; conditions: concentration 100 (unit not given), 24 hours
Protocol: The efficacy of collagen synthesis was investigated for the Lactobacillus pentosus […]-1 strain of the present invention. Specifically, after primary culture of skin fibroblasts, DMEM (Dulbecco's Modified Eagle's Medium) with an addition of 10% FBS was used as a basal medium for the skin fibroblasts. Then, the skin fibroblasts were seeded in a 48-well plate at a concentration of 2 to 5×10^4 cells/mL and cultured for 24 hours. Subsequently, the growth medium was removed, and a medium containing the strain of the present invention (without FBS added) was added, and the cells were cultured for 24 hours, and thereafter the cell culture solution was taken and subjected to ELISA analysis.

For `OC[C@H]1O[C@@H](Oc2ccc(O)cc2)[C@H](O)[C@@H](O)[C@@H]1O` [Arbutin], the “Melanin content (% control)” value (MNT-1 melanoma cells) was 74.37 % control.

`CNC(=N)NCCC[C@H](N)C(=O)O` [L-NMMA] was tested, and the “Inhibition Rate (% control) of NO production” value [1] was 81.2 % control.

In the case of `O=C1O[C@H]([C@@H](O)CO)C(O)=C1O` [Vita C], the “Collagen (% control)” value (skin fibroblasts) is reported as 161.91 % control.
